System: T47D cells
Format: cell-based
Details: serum-starved T47D cells, 96 hours, compared to DMSO or IgG1 controls
Source text: To measure proliferation, Hoechst staining was used to stain nuclei and CellMask™ (Thermo Fisher Scientific) Deep Red was used to stain cell membranes. To measure cell death, Annexin V was used to stain phosphatidylserine on the cell surface, a marker of apoptosis, and Incucyte® Cytotox Green (Sartorius) to stain cells with compromised membrane integrity, a marker of cell death.

**Q.** With `CC(=O)O[C@H]1C(=O)[C@@]2(C)[C@H]([C@H](OC(=O)c3ccccc3)[C@]3(O)C[C@H](OC(=O)[C@H](O)[C@@H](NC(=O)c4ccccc4)c4ccccc4)C(C)=C1C3(C)C)[C@]1(OC(C)=O)CO[C@@H]1C[C@@H]2O` [paclitaxel] as the compound, how does the “effect on cell death (Annexin V, Cytotox Green)” value read?
**A.** increased cell death

**Q.** What about the “effect on cell proliferation (nuclei count, total cell area)” value of the same compound?
**A.** decreased proliferation
